Our source for the EC50 and in vitro potency values is EP4796171A2 (Zealand Pharma A/S, priority 2017, dated 2018).

The assay concerns the target T1, human GLP-2 receptors (Homo sapiens, UniProt O95838, D470N).
T1 sequence (O95838 1-553 D470N): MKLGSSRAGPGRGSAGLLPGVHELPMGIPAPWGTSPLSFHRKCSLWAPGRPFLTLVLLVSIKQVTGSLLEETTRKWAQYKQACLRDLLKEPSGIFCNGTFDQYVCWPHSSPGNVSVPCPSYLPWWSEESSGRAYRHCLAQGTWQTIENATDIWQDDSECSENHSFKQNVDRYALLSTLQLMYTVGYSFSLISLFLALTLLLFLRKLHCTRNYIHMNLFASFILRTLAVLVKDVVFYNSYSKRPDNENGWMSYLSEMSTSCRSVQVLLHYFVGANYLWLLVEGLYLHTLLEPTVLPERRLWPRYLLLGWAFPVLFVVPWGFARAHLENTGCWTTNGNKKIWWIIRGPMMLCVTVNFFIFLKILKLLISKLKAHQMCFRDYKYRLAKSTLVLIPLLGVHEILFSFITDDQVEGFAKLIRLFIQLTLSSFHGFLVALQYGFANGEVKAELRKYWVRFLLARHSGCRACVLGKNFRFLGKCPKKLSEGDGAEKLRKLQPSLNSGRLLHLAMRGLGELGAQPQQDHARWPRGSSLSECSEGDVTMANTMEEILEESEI
Nature of the assay: GLP-2 receptor efficacy assay (cAMP AlphaScreen). In kind it is cell-based. An excerpt: The hGLP2-R was purchased from MRC-geneservice, Babraham, Cambridge as an Image clone: 5363415 (11924-117). For subcloning into a mammalian expression vector, primers for subcloning were obtained from DNA-Technology, Risskov, Denmark. The 5' and 3' primers used for the PCR reaction include terminal restriction sites for cloning and the context of the 5' primer is modified to a Kozak consensus without changing the sequence of the product encoded by the ORF. A standard PCR reaction was run using Image clone 5363415 (11924-117) as a template with the above mentioned primers and Polymerase Herculase II Fusion in a total vol. of 50µl. The generated PCR product was purified using GFX PCR and Gel band purification kit, digested with restriction enzymes and cloned into the mammalian expression vector using Rapid DNA Ligation Kit. Ligation reaction was transformed to XL10 Gold Ultracompetent cells and colonies were picked for DNA production using Endofree Plasmid maxi kit. Subsequent sequence analysis was conducted by MWG Eurofins, Germany.
HEK293 cells were transfected using the Lipofectamine PLUS transfection method. The day before transfection, HEK293 cells were seeded in two T75 flasks at a density of 2 x 10^6 cells / T75 flask in cell culturing medium without antibiotics. On the day of transfection, cells were washed with 1x DPBS and medium was replaced with Optimem to a volume of 5 mL / T75 flask before addition of Lipofectamine-plasmid complexes were added gently and drop wise to the cells in T75 flasks and replaced with growth medium after 3 hours and again to growth medium supplemented with 500µg/mL G418 after 24 hours. After 4 weeks in G418 selection, clones were picked and tested in a functional assay.
The cAMP AlphaScreen® assay from Perkin Elmer was used to quantitate the cAMP response to activation of the GLP2 receptor. […] Table 2: GLP-2R EC50 measurements
(Bead proximity is the source of the signal in Alpha formats.)

Consider “H-HGEGTFSSELATILDALAARDFIAWLIATKITDK-OH [ZP2469]”, for which the EC50 – broadly, the midpoint of the concentration-response curve – came to 0.052 nM. The in vitro potency result (in words, relative to ZP1848) is “comparable to ZP1848”.
